Source: the NIST ThermoML archive (doi:10.1016/j.fluid.2010.10.028)

Assay: xn = mol fraction of the nth substance listed
Conditions: Liquid, Vibrating tube method

CC(C)=O [acetone] + CCCCCCC
Conditions | mass density [kg/m3]
407.22 K, 24840 kPa, x1 = 0.492 | 637.87
407.22 K, 24850 kPa, x1 = 0.611 | 645.53
407.22 K, 24850 kPa, x1 = 0.801 | 663.77
407.22 K, 29850 kPa, x1 = 0.492 | 645.2
407.22 K, 29860 kPa, x1 = 0.801 | 671.47
407.22 K, 29870 kPa, x1 = 0.611 | 653.05
407.22 K, 34850 kPa, x1 = 0.801 | 678.52
407.22 K, 34860 kPa, x1 = 0.611 | 659.9
407.22 K, 39850 kPa, x1 = 0.801 | 685.05
407.22 K, 39860 kPa, x1 = 0.611 | 666.23
407.22 K, 44860 kPa, x1 = 0.801 | 691.11
407.22 K, 44870 kPa, x1 = 0.611 | 672.1
407.22 K, 49870 kPa, x1 = 0.611 | 677.58
407.22 K, 54850 kPa, x1 = 0.611 | 682.71
407.22 K, 59830 kPa, x1 = 0.611 | 687.58
407.22 K, 59840 kPa, x1 = 0.492 | 679.01
407.22 K, 59840 kPa, x1 = 0.801 | 707.14
407.22 K, 64930 kPa, x1 = 0.611 | 692.3
407.22 K, 69830 kPa, x1 = 0.801 | 716.45
407.22 K, 69920 kPa, x1 = 0.611 | 696.69
407.22 K, 74910 kPa, x1 = 0.611 | 700.88
407.22 K, 74920 kPa, x1 = 0.801 | 720.89
407.22 K, 79900 kPa, x1 = 0.611 | 704.88
407.22 K, 79920 kPa, x1 = 0.801 | 725.05
407.22 K, 84880 kPa, x1 = 0.611 | 708.71
407.22 K, 84890 kPa, x1 = 0.801 | 729.04
407.22 K, 89850 kPa, x1 = 0.611 | 712.41
407.22 K, 89860 kPa, x1 = 0.492 | 703.26
407.22 K, 89890 kPa, x1 = 0.801 | 732.88
407.22 K, 94740 kPa, x1 = 0.4 | 750.92
407.22 K, 94740 kPa, x1 = 0.8992 | 750.92
407.22 K, 94840 kPa, x1 = 0.611 | 715.96
407.22 K, 94870 kPa, x1 = 0.801 | 736.56
407.22 K, 99720 kPa, x1 = 0.4 | 754.58
407.22 K, 99720 kPa, x1 = 0.8992 | 754.58
407.22 K, 99820 kPa, x1 = 0.611 | 719.38
407.22 K, 99840 kPa, x1 = 0.801 | 740.12
407.22 K, 104690 kPa, x1 = 0.4 | 758.09
407.22 K, 104690 kPa, x1 = 0.8992 | 758.09
407.22 K, 104790 kPa, x1 = 0.611 | 722.68
407.22 K, 104820 kPa, x1 = 0.801 | 743.55
407.22 K, 109650 kPa, x1 = 0.4 | 761.5
407.22 K, 109650 kPa, x1 = 0.8992 | 761.5
407.22 K, 109770 kPa, x1 = 0.492 | 716.44
407.22 K, 109790 kPa, x1 = 0.801 | 746.89
407.22 K, 109860 kPa, x1 = 0.611 | 725.93
407.22 K, 114620 kPa, x1 = 0.4 | 764.8
407.22 K, 114620 kPa, x1 = 0.8992 | 764.8
407.22 K, 114770 kPa, x1 = 0.801 | 750.12
407.22 K, 114860 kPa, x1 = 0.492 | 719.55
407.22 K, 114870 kPa, x1 = 0.611 | 729.06
407.22 K, 119590 kPa, x1 = 0.4 | 768
407.22 K, 119590 kPa, x1 = 0.8992 | 768
407.22 K, 119840 kPa, x1 = 0.492 | 722.47
407.22 K, 119840 kPa, x1 = 0.801 | 753.32
407.22 K, 119850 kPa, x1 = 0.611 | 732.05
407.22 K, 124560 kPa, x1 = 0.4 | 771.11
407.22 K, 124560 kPa, x1 = 0.8992 | 771.11
407.22 K, 124850 kPa, x1 = 0.492 | 725.34
407.22 K, 124850 kPa, x1 = 0.611 | 735.01
407.22 K, 124850 kPa, x1 = 0.801 | 756.37
407.22 K, 129820 kPa, x1 = 0.4 | 774.33
407.22 K, 129820 kPa, x1 = 0.8992 | 774.33
407.22 K, 129840 kPa, x1 = 0.611 | 737.84
407.22 K, 129840 kPa, x1 = 0.801 | 759.34
407.23 K, 4820 kPa, x1 = 0.7024 | 611.92
407.23 K, 9850 kPa, x1 = 0.492 | 610.28
407.23 K, 14860 kPa, x1 = 0.492 | 620.71
407.23 K, 19860 kPa, x1 = 0.492 | 629.81
407.23 K, 24820 kPa, x1 = 0.7024 | 653.51
407.23 K, 29820 kPa, x1 = 0.7024 | 661.13
407.23 K, 34840 kPa, x1 = 0.492 | 651.87
407.23 K, 39860 kPa, x1 = 0.492 | 658.08
407.23 K, 44850 kPa, x1 = 0.492 | 663.81
407.23 K, 49840 kPa, x1 = 0.801 | 696.75
407.23 K, 49850 kPa, x1 = 0.492 | 669.19
407.23 K, 54850 kPa, x1 = 0.801 | 702.09
407.23 K, 54860 kPa, x1 = 0.492 | 674.25
407.23 K, 64830 kPa, x1 = 0.492 | 683.5
407.23 K, 64830 kPa, x1 = 0.801 | 711.9
407.23 K, 69930 kPa, x1 = 0.492 | 687.88
407.23 K, 74910 kPa, x1 = 0.492 | 691.98
407.23 K, 79890 kPa, x1 = 0.492 | 695.9
407.23 K, 84870 kPa, x1 = 0.492 | 699.66
407.23 K, 94840 kPa, x1 = 0.492 | 706.73
407.23 K, 99820 kPa, x1 = 0.492 | 710.09
407.23 K, 104790 kPa, x1 = 0.492 | 713.3
407.23 K, 129830 kPa, x1 = 0.492 | 728.11
407.24 K, 1620 kPa, x1 = 0.7024 | 602.1
407.24 K, 9830 kPa, x1 = 0.7024 | 624.8
407.24 K, 14840 kPa, x1 = 0.7024 | 635.66
